{"source": "patent US7612214B2", "about": "“Organic amine salts of glutamic acid derivatives and their application” (Ajinomoto Co., Inc., priority 2003, dated 2009)", "origin": "cited, not measured here", "settings": "(2S,4S) isomer derived from the natural plant; literature report (Vleggaar et al.)", "note": "“And” between values parts separate entries of the source, which are not always exact repeats. Equal values may be shown once.", "data": [{"smiles": "N[C@@H](C[C@@](O)(Cc1c[nH]c2ccccc12)C(=O)O)C(=O)O", "note": "[(2S,4S) isomer, (2S,4S)-2-amino-4-carboxy-4-hydroxy-5-(3-indolyl)pentanoic acid]", "values": [{"measurement": "degree of sweetness", "result": "800 times of sucrose and 1400 times of sucrose"}]}]}
